For data set [1] the following is noted: pig, in vivo.
Method: To a bag with 3 L fluid 300 mL of nitrous oxide (=0,18 mg nitrous oxide/mL irrigagting fluid) were added. The nitrous oxide was measured with a 300 mL glass syringe and injected into the bag using the syringe connection. The temperature was abut 22° C. and the air pressure about 1015 mbar (not measured but estimated via meteorological service). Before the addition of nitrous oxide the gas in the bag was removed, about 1 mL remained. After the addition of nitrous oxide the bag was shaken until the nitrous oxide was dissolved. A gas bubble with a volume of abut 15 mL remained.
The weight of the pig was 19 kg. Ventilation 3L/min with 20 breaths per minute, 25% inhalation followed by 10% pause. At the first test 300 mL of irrigating fluid were injected intravenously during 20 min using a dosing pump.
Data set [2] is described as follows: Nitrous oxide concentration in exhaled air of pigs after injection of irrigating fluid containing nitrous oxide. It is filed as in vivo, pig. An excerpt:
A Telair N2O monitor type 2001 L was used to measure the nitrous oxide concentration. The measuring range of the instrument was 0–1000 ppm.
As the analyser was sensitive also to carbon dioxide an absorber containing soda lime to remove the carbon dioxide was arranged before the analyser. During the absorption process water is formed which together with the moisture in the exhaled air can disturb the measurements. A layer of silica gel after the soda lime absorber was used to eliminate this problem.
The sample gas pump gave a sample flow of 300 mL/min.
The pump was continuously pumping gas. The measured concentration was a time weighted average for the exhaled and inhaled gas.
The weight of the pig was 19 kg.
The weight of the pig was 21 kg. Ventilation as for pig. 1. First 300 mL of irrigating fluid were injected intraperitonally during 20 minutes. The initial decrease in nitrous oxide concentration was caused by placing the needle in the wrong place. Some mL were injected before the injection was stopped and the test restarted. The decrease is the decay phase from the first injection.
In test two 600 mL were administered intravenously during 20 minutes.
Weight 23 kg. Ventilation […], the rest as for pig 1. First a number of tests with intravenous injection of pulses of fluid were performed. The volumes added were 2, 10 and 20 mL. Approximately 1 mL/s was added.
Then 150 mL of fluid were administered intravenously during 20 minutes. The discontinuity in the diagram was caused by testing another ventilator setting which affected the reading so much that the data point was not used. After 40 minutes 600 mL of irrigating fluid were added intravenously during 20 minutes.
The nitrous oxde concentration values are measured concentrations minus the starting point value. In some cases a test was started while the nitrous oxide concentration from the previous test was still decreasing. As the base line was not stable, the values at the end of the decay phase are uncertain. This can be seen in FIG. 4, where it looks like the 150 mL concentration values are stabilizing at a higher level than the 600 mL values.

Setting [3] is: intraperitoneal injection of irrigating fluid, exhaled air.
Where [4] appears, read: intravenous injection of irrigating fluid, exhaled air.

SMILES strings stand for the structures.

As for `CCO` [ethanol], the “highest measured ethanol concentration” value in data set [1] was determined as 0.20%.

Regarding `[N-]=[N+]=O` [nitrous oxide], the “decrease of concentration in exhaled air compared with ethanol” value in data set [2] (data normalised to similar peak heights, pig 1, intravenous) was “decreased much faster than the ethanol”. Besides, in data set [2] (setting [3]), the “time before the nitrous oxide concentration started to increase” value was found to be 2.5 min and the “time to 50% of the final concentration after the start of the increase” value is given as “about 5 minutes”. For the same molecule, in data set [2] (setting [4]), the “time after start of injection until nitrous oxide concentration started to increase” value is on record as “about 15 seconds” and the “time to 50% of the final concentration after the concentration started to increase” value is on record as “about one”. Moreover, the “measured nitrous oxide concentration used in mass balance” value in data set [2] (pig 3, 30 mL/min irrigating fluid intravenously, time weighted average of exhaled and inhaled gas) turned out to be 520 ppm. In addition, the “exhaled nitrous oxide (mass balance)” value in data set [2] (pig 3, added amount of nitrous oxide 3,0 mL/min) is 3,0 mL/min. Further, the “increase of nitrous oxide concentration per mL of irrigating fluid” value in data set [2] (pulses of fluid added intravenously (2, 10, 20 mL), exhaled air, pig 3) is listed as 10–15 ppm per mL. Moreover, the “time of peak reading after start of injection” value in data set [2] (pulses of fluid added intravenously, exhaled air) is given as “about 30 seconds”.
